Our source for the IC50 values is patent US10508109B2 (priority 2015, dated 2019).

One assay concerns HFL1. Put plainly: Cell-based assay, anti-proliferative activity (Cell Counting Kit-8, 72 hours). The settings on record: Homo sapiens, read-out: IC50 (μM) HFL1. Summed up:
(§1)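 Seed cells in 96-well plates; add serially diluted inhibitor (1.5625 to 100 micro-M plus vehicle); incubate 72 hours; quantify viable growth by CCK-8 and calculate IC50.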
(In general: Tetrazolium assays rely on reduction of a dye to a coloured formazan, in cell work by metabolically active cells.)

The subject of the next assay is PC14. The assay is described as above. The settings on record: Homo sapiens, read-out: IC50 (μM) PC14. Summed up: as §1
A further assay deals with HCT-116. Described as above. As to conditions: Homo sapiens, read-out: IC50 (μM) HCT-116. Summed up:
as §1

A further assay concerns CCD-18Co. The assay is described as above. As to conditions: Homo sapiens, read-out: IC50 (μM) CCD-18Co. A digest of the protocol:
as §1

The next assay deals with A549. Described as above. The settings on record: Homo sapiens, read-out: IC50 (μM) A549. A digest of the protocol:
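After compound exposure of cells in 96-well plates, growth was measured colorimetrically and converted into IC50 values.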

The next assay has as its target SUV39H2 (Homo sapiens (Human), UniProt Q9H5I1). As to conditions: read-out: IC50 (μM) Suv 39H2 assay; enzyme assay.
Where [1] appears, read: HFL1 cells, Cell Counting Kit-8, 72 hours.
Where [2] appears, read: PC-14, PC14 cells, Cell Counting Kit-8, 72 hours.
Where [3] appears, read: HCT-116 cells, Cell Counting Kit-8, 72 hours.
Where [4] appears, read: CCD-18Co cells, Cell Counting Kit-8, 72 hours.
The mark [5] stands for this setting: A549 cells, Cell Counting Kit-8, 72 hours.
Setting [6] is: HFL1 cells, 72 hours, Cell Counting Kit-8.
Where [7] appears, read: PC-14, PC14 cells, 72 hours, Cell Counting Kit-8.
[8] abbreviates: HCT-116 cells, 72 hours, Cell Counting Kit-8.
[9] abbreviates: CCD-18Co cells, 72 hours, Cell Counting Kit-8.
[10] abbreviates: A549 cells, 72 hours, Cell Counting Kit-8.

Structures can show the parent of a compound that is named as a salt. Where two headings read alike, the source gives them in different places.

SUV39H2, sequence (Q9H5I1 whole entry): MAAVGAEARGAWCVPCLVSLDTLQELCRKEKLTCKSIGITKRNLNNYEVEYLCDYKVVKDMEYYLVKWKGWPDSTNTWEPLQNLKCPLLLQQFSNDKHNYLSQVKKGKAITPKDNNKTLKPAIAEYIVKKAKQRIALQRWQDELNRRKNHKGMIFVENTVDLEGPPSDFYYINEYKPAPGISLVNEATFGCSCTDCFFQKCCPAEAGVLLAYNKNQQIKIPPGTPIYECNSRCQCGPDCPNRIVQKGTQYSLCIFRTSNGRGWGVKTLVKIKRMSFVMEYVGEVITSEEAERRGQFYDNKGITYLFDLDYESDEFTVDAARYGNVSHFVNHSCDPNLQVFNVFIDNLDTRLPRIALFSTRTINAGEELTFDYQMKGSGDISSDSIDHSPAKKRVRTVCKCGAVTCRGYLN

On to `COc1cc(OC)c(-c2cn3ccc(N4CCN(S(=O)(=O)C5CC5)CC4)nc3n2)cc1Cl` [Example 146, 2-(5-chloro-2,4-dimethoxyphenyl)-7-[4-(cyclopropylsulfonyl)piperazin-1-yl]imidazo[1,2-a]pyrimidine], for which the IC50 – broadly, the concentration at which inhibition is half-maximal – stood at 1.4 µM with HFL1 (setting [1]); 0.24 µM with PC14 (setting [2]); 0.69 µM in the assay on HCT-116 (setting [3]); 4.2 µM in the assay with CCD-18Co (setting [4]); 0.49 µM with A549 (setting [5]); 0.0247 µM at SUV39H2.

For the compound `COc1cc(OC)c(-c2cn3ccc(N4CCCN(S(C)(=O)=O)CC4)cc3n2)cc1Cl` [Example 201, 2-(5-chloro-2,4-dimethoxyphenyl)-7-[4-(methylsulfonyl)-1,4-diazepan-1-yl]imidazo[1,2-a]pyridine], the IC50 in the assay on HFL1 (setting [1]) worked out at 3 µM; in the assay with PC14 (setting [2]), 1.9 µM; with HCT-116 (setting [3]) it was 2.7 µM; in the assay with CCD-18Co (setting [4]), 3.2 µM; in the assay on A549 (setting [5]), 2.2 µM; at SUV39H2 it was 0.0064 µM.

For `COc1cc(OC)c(-c2cn3ccc(N4CCCC4)nc3n2)cc1Cl` [Example 9, 2-(5-chloro-2,4-dimethoxyphenyl)-7-(pyrrolidin-1-yl)imidazo-[1,2-a]pyrimidine hydrobromide], the IC50 worked out at 7.1 µM in the assay on HFL1 (setting [1]); 6.3 µM in the assay on PC14 (setting [2]); 6.8 µM in the assay on HCT-116 (setting [3]); 8 µM with CCD-18Co (setting [4]); 8 µM in the assay with A549 (setting [5]); 0.00608 µM at SUV39H2.

Consider `COc1cc(OCCCN(C)C)c(-c2cn3ccc(N4CCN(C(=O)OC(C)(C)C)CC4)cc3n2)cc1Cl` [Example 127, tert-butyl 4-(2-{5-chloro-2-[3-(dimethylamino)propoxy]-4-methoxyphenyl}imidazo[1,2-a]pyridin-7-yl)piperazine-1-carboxylate], for which the IC50 in the assay with HFL1 (setting [1]) came to 0.5 µM; with PC14 (setting [2]), 1.6 µM; in the assay on HCT-116 (setting [3]), 1.2 µM; with CCD-18Co (setting [4]) it was 0.83 µM; in the assay with A549 (setting [5]), 1.6 µM; at SUV39H2, 0.0995 µM.

Consider `CNc1ccn2cc(-c3cc(Br)c(OC)cc3OC)nc2c1` [Example 11, 2-(5-bromo-2,4-dimethoxyphenyl)-N-methylimidazo[1,2-a]pyridin-7-amine hydrobromide], for which the IC50 came to 1.7 µM in the assay with HFL1 (HFL1, 72 h); 0.88 µM in the assay on PC14 (PC-14, 72 h); 1.1 µM with HCT-116 (HCT-116, 72 h); 2 µM in the assay with CCD-18Co (CCD-18Co, 72 h); 1.4 µM in the assay with A549 (A549, 72 h); 0.0094 µM at SUV39H2.

Turning to `COc1cc(OC)c(-c2cn3ccc(N4CC[C@H](NCc5cccnc5)C4)cc3n2)cc1Cl` [Example 300, (S)-1-(2-(5-chloro-2,4-dimethoxyphenyl)imidazo[1,2-a]pyridin-7-yl)-N-(pyridin-3-ylmethyl)pyrrolidin-3-amine], the IC50 with HFL1 (setting [6]) was 7.1 µM; in the assay on PC14 (setting [7]), 3.5 µM; in the assay with HCT-116 (setting [8]) it was 4.7 µM; with CCD-18Co (setting [9]), 6.1 µM; in the assay with A549 (setting [10]), 6 µM; on SUV39H2, 0.0127 µM.

Regarding `COc1cc(OC)c(-c2cn3ccc(-c4ccc(C(=O)N5CCNCC5)cc4)cc3n2)cc1Cl` [Example 254, (4-(2-(5-chloro-2,4-dimethoxyphenyl)imidazo[1,2-a]pyridin-7-yl)-phenyl)(piperazin-1-yl)methanone], the half-inhibitory concentration (IC50) in the assay on HFL1 (setting [6]) was 2.8 µM; in the assay with PC14 (setting [7]), 0.99 µM; in the assay with HCT-116 (setting [8]) it was 2.6 µM; in the assay on CCD-18Co (setting [9]) it was 3.1 µM; in the assay with A549 (setting [10]), 2.7 µM; on SUV39H2 it was 0.0383 µM.

`COc1cc(OC)c(-c2cn3ccc(N4CCN(CCN5CCNCC5)CC4)cc3n2)cc1Cl` [Example 142, 2-(5-chloro-2,4-dimethoxyphenyl)-7-(4-(2-(piperazin-1-yl)ethyl)piperazin-1-yl)imidazo-[1,2-a]pyridine]: the IC50 with HFL1 (setting [1]) is 7.1 µM; with PC14 (setting [2]), 8.7 µM; in the assay with HCT-116 (setting [3]), 8.2 µM; with CCD-18Co (setting [4]), 7.8 µM; in the assay with A549 (setting [5]) it was 6.6 µM; at SUV39H2, 0.00785 µM.

`COc1cc(OC)c(-c2cn3cc(NCCN)c(N4CCNCC4)nc3n2)cc1Cl` [Example 223, N^1-(2-(5-chloro-2,4-dimethoxy-phenyl)-7-(piperazin-1-yl)imidazo[1,2-a]pyrimidin-6-yl)ethane-1,2-diamine]: the IC50 in the assay on HFL1 (setting [6]) amounted to 10 µM; in the assay with PC14 (setting [7]), 10 µM; in the assay on HCT-116 (setting [8]), 10 µM; with CCD-18Co (setting [9]) it was 10 µM; in the assay on A549 (setting [10]), 10 µM; on SUV39H2, 0.00866 µM.

Consider `COc1cc(OC)c(-c2cn3ccc(N4CCC(NP(=O)(OC)OC)CC4)cc3n2)cc1Cl` [Example 198, Dimethyl (1-(2-(5-chloro-2,4-dimethoxyphenyl)imidazo[1,2-a]pyridin-7-yl)piperidin-4-yl)phosphoramidate], for which the IC50 in the assay on HFL1 (setting [1]) turned out to be 1.6 µM; in the assay with PC14 (setting [2]) it was 3.7 µM; in the assay with HCT-116 (setting [3]), 5.7 µM; in the assay on CCD-18Co (setting [4]), 3.5 µM; with A549 (setting [5]), 3.2 µM; on SUV39H2, 0.00435 µM.

On to `COc1cc(OC)c(-c2cn3ccc(N4CCN(S(=O)(=O)Cc5ccccc5)CC4)cc3n2)cc1Cl` [Example 179, 7-[4-(benzylsulfonyl)piperazin-1-yl]-2-(5-chloro-2,4-dimethoxyphenyl)-imidazo[1,2-a]pyridine], for which the IC50 is 1.8 µM with HFL1 (setting [1]); 1.6 µM in the assay with PC14 (setting [2]); 1.6 µM in the assay on HCT-116 (setting [3]); 1.8 µM with CCD-18Co (setting [4]); 2.1 µM in the assay with A549 (setting [5]); 0.0322 µM at SUV39H2.

For `COc1cc(OC)c(-c2cn3ccc(N4CCN(C(=O)OC(C)(C)C)CC4)cc3n2)cc1Cl` [Example 232, tert-butyl 4-[2-(5-chloro-2,4-dimethoxyphenyl)imidazo[1,2-a]pyridin-7-yl]piperazine-1-carboxylate], the IC50 with HFL1 (setting [6]) amounted to 1.1 µM; in the assay with PC14 (setting [7]) it was 0.73 µM; in the assay with HCT-116 (setting [8]), 1.7 µM; in the assay with CCD-18Co (setting [9]) it was 1.5 µM; with A549 (setting [10]) it was 1.5 µM; on SUV39H2 it was 0.0291 µM.

Regarding `COc1cc(OC)c(-c2cn3ccc(N4CCC(NS(=O)(=O)C5CC5)CC4)cc3n2)cc1Cl` [Example 126, N-{1-[2-(5-chloro-2,4-dimethoxyphenyl)imidazo[1,2-a]pyridin-7-yl]piperidin-4-yl}cyclopropanesulfonamide], the IC50 was determined as 1.4 µM with HFL1 (setting [1]); 3.1 µM in the assay on PC14 (setting [2]); 1.9 µM in the assay with HCT-116 (setting [3]); 1.8 µM with CCD-18Co (setting [4]); 2.1 µM in the assay with A549 (setting [5]); 0.014 µM on SUV39H2.

Turning to `COc1cc(OC)c(-c2cn3ccc(N4CCN(CCCN(C)C)CC4)cc3n2)cc1Br` [Example 130, 3-(4-(2-(5-bromo-2,4-dimethoxyphenyl)imidazo[1,2-a]pyridin-7-yl)-piperazin-1-yl)-N,N-dimethylpropan-1-amine], the IC50 with HFL1 (setting [1]) was determined as 4.6 µM; in the assay with PC14 (setting [2]), 2.6 µM; in the assay on HCT-116 (setting [3]), 2.8 µM; with CCD-18Co (setting [4]) it was 6.6 µM; with A549 (setting [5]) it was 2.7 µM; at SUV39H2, 0.003 µM.

As for `COc1cc(OC)c(-c2cn3ccc(N4CCN(c5ccnc(N)n5)CC4)cc3n2)cc1Cl` [Example 279, 4-(4-(2-(5-chloro-2,4-dimethoxyphenyl)imidazo[1,2-a]pyridin-7-yl)-piperazin-1-yl)pyrimidin-2-amine], the IC50 stood at 0.33 µM in the assay on HFL1 (setting [6]); 0.38 µM in the assay on PC14 (setting [7]); 0.32 µM with HCT-116 (setting [8]); 0.33 µM with CCD-18Co (setting [9]); 0.32 µM in the assay on A549 (setting [10]); 0.00938 µM on SUV39H2.
